Read-outs that look alike come from different tables or passages of the source.
How the values were obtained:
Experiment in all cases: biochemical
Set-up in all cases: Eurofins KinaseProfiler full panel at Km ATP, residual kinase activity (%) relative to DMSO
[1] = biological target: T1, CK1γ2(h) (Homo sapiens, UniProt P78368)
T1 construct: gene CSNK1G2
Outline: (§1)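 Radiometric kinase activity assays were run with ATP at Km and compounds at 10 µM, and remaining activity (%) was reported. A separate competitive binding screen measured DNA-tagged kinase displaced from immobilized active-site ligands by qPCR, giving percent kinase still bound at 10 µM compound in DMSO.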

[2] = biological target: T2, PI3 Kinase (p110b/p85a)(m) (Mus musculus, UniProt Q8BTI9)
T2 construct: gene Pik3cb
Outline: as §1

[3] = biological target: CSK(h) (Homo sapiens, UniProt P41240)
Outline: as §1

[4] = biological target: T3, PKBγ(h) (Homo sapiens, UniProt Q9Y243)
T3 construct: gene AKT3
Outline: as §1

[5] = biological target: T4, ASK1(h) (Homo sapiens, UniProt Q99683)
T4 construct: gene MAP3K5
T4 sequence (Q99683 1-1374): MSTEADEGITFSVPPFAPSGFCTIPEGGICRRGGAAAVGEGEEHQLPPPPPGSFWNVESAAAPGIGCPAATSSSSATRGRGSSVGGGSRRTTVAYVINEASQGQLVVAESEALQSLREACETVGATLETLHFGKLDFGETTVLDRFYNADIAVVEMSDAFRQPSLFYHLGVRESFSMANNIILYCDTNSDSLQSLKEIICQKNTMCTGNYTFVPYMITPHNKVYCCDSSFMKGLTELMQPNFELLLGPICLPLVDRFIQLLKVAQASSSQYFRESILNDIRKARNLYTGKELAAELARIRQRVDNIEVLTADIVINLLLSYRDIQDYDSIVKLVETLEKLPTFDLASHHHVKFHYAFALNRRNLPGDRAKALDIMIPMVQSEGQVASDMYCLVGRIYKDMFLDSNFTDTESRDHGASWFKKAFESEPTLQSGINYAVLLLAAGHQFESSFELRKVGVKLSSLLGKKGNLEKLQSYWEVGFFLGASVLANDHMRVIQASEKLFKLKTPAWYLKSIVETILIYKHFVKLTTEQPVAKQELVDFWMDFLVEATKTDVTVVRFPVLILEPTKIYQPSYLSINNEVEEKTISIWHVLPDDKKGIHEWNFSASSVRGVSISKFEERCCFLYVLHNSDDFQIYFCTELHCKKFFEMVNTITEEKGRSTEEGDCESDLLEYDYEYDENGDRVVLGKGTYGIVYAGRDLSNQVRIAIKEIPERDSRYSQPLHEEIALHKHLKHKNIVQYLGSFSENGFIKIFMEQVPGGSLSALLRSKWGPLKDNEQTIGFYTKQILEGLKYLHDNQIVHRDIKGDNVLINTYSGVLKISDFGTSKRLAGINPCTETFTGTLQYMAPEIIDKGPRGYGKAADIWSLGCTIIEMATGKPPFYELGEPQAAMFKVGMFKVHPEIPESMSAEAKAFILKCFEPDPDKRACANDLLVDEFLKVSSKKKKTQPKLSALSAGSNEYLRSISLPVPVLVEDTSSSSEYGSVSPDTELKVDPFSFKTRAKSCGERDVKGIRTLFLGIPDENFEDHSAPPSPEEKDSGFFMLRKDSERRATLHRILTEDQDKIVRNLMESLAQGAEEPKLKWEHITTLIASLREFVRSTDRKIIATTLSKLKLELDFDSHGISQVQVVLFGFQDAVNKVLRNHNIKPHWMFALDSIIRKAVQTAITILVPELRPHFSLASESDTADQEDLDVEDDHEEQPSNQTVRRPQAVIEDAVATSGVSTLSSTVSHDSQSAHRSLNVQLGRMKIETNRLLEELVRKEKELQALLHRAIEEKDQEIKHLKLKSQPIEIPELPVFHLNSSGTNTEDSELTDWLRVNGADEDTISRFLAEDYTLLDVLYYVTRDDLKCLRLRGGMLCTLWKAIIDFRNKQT
Outline: as §1

[6] = biological target: T5, CK1γ1(h) (Homo sapiens, UniProt Q9HCP0)
T5 construct: gene CSNK1G1
Outline: as §1

[7] = biological target: STK32B(h) (Homo sapiens, UniProt Q9NY57)
Outline: as §1

[8] = biological target: T6, Fms(Y969C)(h) (Homo sapiens, UniProt P07333, Y969C)
T6 construct: gene CSF1R
Outline: as §1

[9] = biological target: SIK2(h) (Homo sapiens, UniProt Q9H0K1)
Outline: as §1

[10] = biological target: NEK7(h) (Homo sapiens, UniProt Q8TDX7)
Outline: as §1

[11] = read-out: Residual activity (%) Spautin-1 5aa
[12] = read-out: Residual activity (%) 5as
[13] = read-out: Residual activity (%) 5at
[14] = read-out: Residual activity (%) 5ay

Sequence of CSK(h) (P41240 whole entry): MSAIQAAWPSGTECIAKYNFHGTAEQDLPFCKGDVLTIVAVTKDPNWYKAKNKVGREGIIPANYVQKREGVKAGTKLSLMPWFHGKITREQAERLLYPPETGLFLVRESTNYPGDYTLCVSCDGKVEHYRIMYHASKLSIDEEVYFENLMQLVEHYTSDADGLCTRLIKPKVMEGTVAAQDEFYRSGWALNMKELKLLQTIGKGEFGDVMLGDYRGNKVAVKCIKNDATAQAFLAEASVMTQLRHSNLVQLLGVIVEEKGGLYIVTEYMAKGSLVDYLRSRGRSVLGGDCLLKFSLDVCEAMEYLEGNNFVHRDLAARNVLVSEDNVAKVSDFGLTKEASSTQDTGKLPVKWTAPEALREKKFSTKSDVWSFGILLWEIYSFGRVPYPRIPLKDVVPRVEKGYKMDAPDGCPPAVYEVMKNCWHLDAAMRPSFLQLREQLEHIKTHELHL
T5 sequence (Q9HCP0 whole entry): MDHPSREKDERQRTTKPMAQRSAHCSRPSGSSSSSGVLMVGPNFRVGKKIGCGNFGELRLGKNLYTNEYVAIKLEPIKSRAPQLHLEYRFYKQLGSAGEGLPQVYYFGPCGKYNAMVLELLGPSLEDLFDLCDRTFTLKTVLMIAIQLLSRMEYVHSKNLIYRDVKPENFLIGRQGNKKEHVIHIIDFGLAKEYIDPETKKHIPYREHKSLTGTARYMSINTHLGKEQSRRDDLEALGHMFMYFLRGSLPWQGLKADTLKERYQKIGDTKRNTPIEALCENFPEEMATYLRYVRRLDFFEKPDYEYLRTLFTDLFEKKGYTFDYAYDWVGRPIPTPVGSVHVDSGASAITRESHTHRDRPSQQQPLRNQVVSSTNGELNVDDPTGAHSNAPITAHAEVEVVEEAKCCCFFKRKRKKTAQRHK
Sequence of SIK2(h) (Q9H0K1 whole entry): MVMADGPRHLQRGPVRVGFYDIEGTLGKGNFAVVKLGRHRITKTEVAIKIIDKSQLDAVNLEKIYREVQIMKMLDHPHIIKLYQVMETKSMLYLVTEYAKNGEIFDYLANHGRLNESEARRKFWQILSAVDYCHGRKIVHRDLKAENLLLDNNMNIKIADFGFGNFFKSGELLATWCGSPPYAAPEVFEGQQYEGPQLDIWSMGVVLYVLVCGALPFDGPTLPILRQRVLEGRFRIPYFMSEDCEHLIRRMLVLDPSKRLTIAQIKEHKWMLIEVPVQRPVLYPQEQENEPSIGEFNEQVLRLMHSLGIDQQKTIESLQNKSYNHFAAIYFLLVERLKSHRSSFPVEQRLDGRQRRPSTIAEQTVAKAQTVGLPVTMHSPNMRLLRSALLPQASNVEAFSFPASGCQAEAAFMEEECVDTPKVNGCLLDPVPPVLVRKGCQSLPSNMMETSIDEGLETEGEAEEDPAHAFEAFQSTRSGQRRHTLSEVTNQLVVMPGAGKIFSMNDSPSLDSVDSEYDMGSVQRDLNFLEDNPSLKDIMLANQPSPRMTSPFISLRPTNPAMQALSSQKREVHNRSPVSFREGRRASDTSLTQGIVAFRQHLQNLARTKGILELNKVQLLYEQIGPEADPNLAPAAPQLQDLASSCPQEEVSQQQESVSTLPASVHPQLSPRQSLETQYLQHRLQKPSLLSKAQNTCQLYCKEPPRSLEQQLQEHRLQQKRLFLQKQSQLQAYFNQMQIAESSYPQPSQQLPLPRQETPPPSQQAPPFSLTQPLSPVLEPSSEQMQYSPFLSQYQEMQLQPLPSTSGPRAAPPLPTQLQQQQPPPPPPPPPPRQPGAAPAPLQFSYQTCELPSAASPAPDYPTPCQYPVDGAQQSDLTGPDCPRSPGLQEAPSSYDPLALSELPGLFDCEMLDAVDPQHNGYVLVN
T2 sequence (Q8BTI9 whole entry): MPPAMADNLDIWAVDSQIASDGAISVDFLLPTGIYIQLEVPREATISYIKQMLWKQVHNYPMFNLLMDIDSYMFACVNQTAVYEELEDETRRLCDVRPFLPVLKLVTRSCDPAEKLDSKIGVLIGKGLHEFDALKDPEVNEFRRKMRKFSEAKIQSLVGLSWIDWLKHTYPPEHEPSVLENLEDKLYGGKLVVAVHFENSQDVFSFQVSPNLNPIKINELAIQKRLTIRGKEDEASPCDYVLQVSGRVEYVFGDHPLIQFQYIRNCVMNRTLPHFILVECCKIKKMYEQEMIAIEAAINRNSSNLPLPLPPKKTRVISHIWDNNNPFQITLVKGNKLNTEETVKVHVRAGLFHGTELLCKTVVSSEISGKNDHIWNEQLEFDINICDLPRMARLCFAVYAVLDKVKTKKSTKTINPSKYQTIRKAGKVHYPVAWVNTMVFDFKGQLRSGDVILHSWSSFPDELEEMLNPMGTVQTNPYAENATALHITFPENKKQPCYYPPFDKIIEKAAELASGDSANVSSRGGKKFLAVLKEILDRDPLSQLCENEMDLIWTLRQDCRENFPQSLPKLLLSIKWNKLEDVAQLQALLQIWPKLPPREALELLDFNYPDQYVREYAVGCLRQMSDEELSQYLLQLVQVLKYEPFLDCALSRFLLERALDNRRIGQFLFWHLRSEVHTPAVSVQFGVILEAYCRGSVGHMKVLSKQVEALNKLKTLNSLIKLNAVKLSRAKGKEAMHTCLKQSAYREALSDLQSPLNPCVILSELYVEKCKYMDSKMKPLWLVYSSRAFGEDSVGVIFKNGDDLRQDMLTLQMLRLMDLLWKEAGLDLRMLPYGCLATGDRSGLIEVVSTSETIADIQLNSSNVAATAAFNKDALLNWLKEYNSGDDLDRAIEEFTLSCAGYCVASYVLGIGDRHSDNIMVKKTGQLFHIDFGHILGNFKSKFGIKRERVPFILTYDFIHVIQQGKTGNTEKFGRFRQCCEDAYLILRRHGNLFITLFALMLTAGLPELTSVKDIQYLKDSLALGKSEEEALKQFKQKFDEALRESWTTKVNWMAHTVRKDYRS
T2 sequence (P26450 whole entry partner): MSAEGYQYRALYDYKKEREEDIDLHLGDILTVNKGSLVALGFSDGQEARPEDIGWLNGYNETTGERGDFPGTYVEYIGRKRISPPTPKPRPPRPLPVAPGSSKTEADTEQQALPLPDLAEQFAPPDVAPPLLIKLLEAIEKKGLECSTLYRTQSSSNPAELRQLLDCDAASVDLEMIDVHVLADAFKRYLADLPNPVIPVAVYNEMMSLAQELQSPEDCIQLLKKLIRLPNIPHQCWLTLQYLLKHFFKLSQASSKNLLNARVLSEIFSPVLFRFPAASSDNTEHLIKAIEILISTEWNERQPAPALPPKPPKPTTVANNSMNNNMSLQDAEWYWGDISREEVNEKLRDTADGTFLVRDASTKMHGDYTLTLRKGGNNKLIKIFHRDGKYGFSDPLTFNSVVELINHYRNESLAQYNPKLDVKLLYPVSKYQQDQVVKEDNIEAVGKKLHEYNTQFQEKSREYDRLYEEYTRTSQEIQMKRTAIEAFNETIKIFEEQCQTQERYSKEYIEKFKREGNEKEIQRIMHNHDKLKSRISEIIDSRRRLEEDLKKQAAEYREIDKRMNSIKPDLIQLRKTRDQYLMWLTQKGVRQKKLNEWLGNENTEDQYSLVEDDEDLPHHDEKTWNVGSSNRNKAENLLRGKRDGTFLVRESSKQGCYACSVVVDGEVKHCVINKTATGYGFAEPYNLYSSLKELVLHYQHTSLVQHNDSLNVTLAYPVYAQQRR
Sequence of STK32B(h) (Q9NY57 whole entry): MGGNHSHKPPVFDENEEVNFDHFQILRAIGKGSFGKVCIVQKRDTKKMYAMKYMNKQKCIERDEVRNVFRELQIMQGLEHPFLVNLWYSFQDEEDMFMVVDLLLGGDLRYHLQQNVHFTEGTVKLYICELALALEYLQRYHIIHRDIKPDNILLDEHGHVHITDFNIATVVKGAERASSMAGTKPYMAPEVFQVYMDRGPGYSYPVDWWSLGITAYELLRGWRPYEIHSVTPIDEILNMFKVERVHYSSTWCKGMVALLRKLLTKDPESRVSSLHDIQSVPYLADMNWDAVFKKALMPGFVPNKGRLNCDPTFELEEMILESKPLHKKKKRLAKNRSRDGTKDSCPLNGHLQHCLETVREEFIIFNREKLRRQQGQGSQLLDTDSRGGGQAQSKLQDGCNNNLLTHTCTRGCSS
Sequence of NEK7(h) (Q8TDX7 whole entry): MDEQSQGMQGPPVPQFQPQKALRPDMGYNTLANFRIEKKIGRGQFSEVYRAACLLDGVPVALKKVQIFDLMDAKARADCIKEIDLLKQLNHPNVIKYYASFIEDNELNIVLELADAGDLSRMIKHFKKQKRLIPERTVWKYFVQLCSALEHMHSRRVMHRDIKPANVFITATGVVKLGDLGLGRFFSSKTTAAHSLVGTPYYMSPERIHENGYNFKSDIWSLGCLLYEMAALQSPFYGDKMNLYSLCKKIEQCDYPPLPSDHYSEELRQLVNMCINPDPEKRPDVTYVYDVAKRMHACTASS
T1 sequence (P78368 whole entry): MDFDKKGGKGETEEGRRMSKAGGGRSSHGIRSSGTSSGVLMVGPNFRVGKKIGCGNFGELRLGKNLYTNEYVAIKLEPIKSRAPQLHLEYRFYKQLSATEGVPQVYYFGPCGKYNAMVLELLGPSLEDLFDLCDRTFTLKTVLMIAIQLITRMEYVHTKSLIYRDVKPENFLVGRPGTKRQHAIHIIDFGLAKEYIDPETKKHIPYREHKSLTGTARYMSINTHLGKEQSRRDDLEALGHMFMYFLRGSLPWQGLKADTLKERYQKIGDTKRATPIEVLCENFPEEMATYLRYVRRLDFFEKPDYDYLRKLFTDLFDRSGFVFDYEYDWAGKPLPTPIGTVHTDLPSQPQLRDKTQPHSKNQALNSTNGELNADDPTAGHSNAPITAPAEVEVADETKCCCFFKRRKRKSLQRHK

With `Fc1ccc(CNc2ncnc3ccc(F)cc23)cc1` [5aa, 6-Fluoro-N-(4-fluorobenzyl)-4-Quinazolinamine] the remaining activity at 10 µM [1, 11] was 84%, the remaining activity at 10 µM [2, 11] was 102% and the remaining activity at 10 µM [3, 11] was 82%. The remaining activity at 10 µM [4, 11] was 101%, the remaining activity at 10 µM [5, 11] was 95% and the remaining activity at 10 µM [6, 11] was 99%. The remaining activity at 10 µM [7, 11] was 95%, the remaining activity at 10 µM [8, 11] was 81% and the remaining activity at 10 µM [9, 11] was 91%. For the same compound, the remaining activity at 10 µM [10, 11] was 95%.

With `Fc1ccc(CCNc2ncnc3ccc(F)cc23)cc1` [5as, 6-Fluoro-N-[2-(4-Fluorophenyl)Ethyl]-4-Quinazolinamine] the remaining activity at 10 µM [1, 12] was 72%, the remaining activity at 10 µM [2, 12] was 98% and the remaining activity at 10 µM [3, 12] was 85%. It also gave a remaining activity at 10 µM [4, 12] of 102%, a remaining activity at 10 µM [5, 12] of 85% and a remaining activity at 10 µM [6, 12] of 80%. The remaining activity at 10 µM [7, 12] was 92%, the remaining activity at 10 µM [8, 12] was 80% and the remaining activity at 10 µM [9, 12] was 97%. The remaining activity at 10 µM [10, 12] was 74%.

`Fc1ccc2ncnc(NCCc3ccc(Cl)cc3)c2c1` [5at, N-[2-(4-Chlorophenyl)Ethyl]-6-Fluoro-4-Quinazolinamine] showed a remaining activity at 10 µM [1, 13] of 76%, a remaining activity at 10 µM [2, 13] of 101% and a remaining activity at 10 µM [3, 13] of 79%. It also gave a remaining activity at 10 µM [4, 13] of 105%, a remaining activity at 10 µM [5, 13] of 80% and a remaining activity at 10 µM [6, 13] of 80%. It also gave a remaining activity at 10 µM [7, 13] of 97%, a remaining activity at 10 µM [8, 13] of 78% and a remaining activity at 10 µM [9, 13] of 84%. For the same compound, the remaining activity at 10 µM [10, 13] was 83%.

Compound `COc1ccc2ncnc(Nc3cccc(F)c3)c2c1` [5ay, N-(3-Fluorophenyl)-6-Methoxy-4-Quinazolinamine] has a remaining activity at 10 µM [1, 14] of 62%, a remaining activity at 10 µM [2, 14] of 99% and a remaining activity at 10 µM [3, 14] of 91%. It also gave a remaining activity at 10 µM [4, 14] of 89%, a remaining activity at 10 µM [5, 14] of 99% and a remaining activity at 10 µM [6, 14] of 94%. For the same compound, the remaining activity at 10 µM [7, 14] was 93%, the remaining activity at 10 µM [8, 14] was 87% and the remaining activity at 10 µM [9, 14] was 65%. The remaining activity at 10 µM [10, 14] was 76%.
